Relative viability data for four cell lines are collected here from the supplement of paper PMC10307832.

What all share (experiment): relative viability (nuclei count vs DMSO), 5 days (fraction); higher = more cells survive
Compound in assay [1]: C1COCCN1C2=NC(=NC3=C2OC4=C3C=CC=N4)C5=CC(=CC=C5)NC(=O)C6=CN=C(C=C6)N + CC(=O)Nc1cccc(-n2c(=O)n(C3CC3)c(=O)c3c(Nc4ccc(I)cc4F)n(C)c(=O)c(C)c32)c1 [Trametinib] (partner 0.02 µM)
Summed up:
(§1)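 Nuclei were stained with Hoechst during a one-step fixation (final 0.05% Triton X-100, 1% formaldehyde, 1 ug/ml Hoechst) carried out 5 days after dosing, then counted on 4× images. The cells, lung cancer lines in 1536-well plates, had been dosed by pin tool the day after seeding with one drug alone or a fixed anchor-drug dose plus five library-drug doses (not always all listed) in √10 steps. Relative viability is the nuclei count in treated wells divided by that in vehicle wells, and each value is the median of duplicate plates.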

Compound in the assay “Entinostat + Olaparib”: Nc1ccccc1NC(=O)c1ccc(CNC(=O)OCc2cccnc2)cc1 [Entinostat] + O=C(c1cc(Cc2n[nH]c(=O)c3ccccc23)ccc1F)N1CCN(C(=O)C2CC2)CC1 [Olaparib] (partner 8 µM)
Summed up: as §1

Compound in the assay “Entinostat + Phenformin”: Nc1ccccc1NC(=O)c1ccc(CNC(=O)OCc2cccnc2)cc1 [Entinostat] + N=C(N)NC(=N)NCCc1ccccc1 [Phenformin] (partner 250 µM)
Summed up: as §1

Compound in the assay “Entinostat + Navitoclax”: Nc1ccccc1NC(=O)c1ccc(CNC(=O)OCc2cccnc2)cc1 [Entinostat] + CC1(C)CCC(c2ccc(Cl)cc2)=C(CN2CCN(c3ccc(C(=O)NS(=O)(=O)c4ccc(N[C@H](CCN5CCOCC5)CSc5ccccc5)c(S(=O)(=O)C(F)(F)F)c4)cc3)CC2)C1 [Navitoclax] (partner 0.5 µM)
Summed up: as §1

On to RERF-LC-KJ, for which the relative viability in assay [1] (first compound 0.02 µM) was 0.808; in assay [1] (first compound 0.06325 µM), 0.971; in assay [1] (first compound 0.2 µM) it was 0.91; in assay [1] (first compound 0.6325 µM), 0.893; in assay [1] (first compound 2 µM) it was 0.689; with Entinostat + Olaparib (first compound 0.02 µM) it was 0.901. The relative viability with Entinostat + Olaparib (first compound 0.06325 µM) turned out to be 0.903; in the assay with Entinostat + Olaparib (first compound 0.2 µM), 0.795; in the assay with Entinostat + Olaparib (first compound 0.6325 µM), 0.373; in the assay with Entinostat + Olaparib (first compound 2 µM), 0.282; in the assay with Entinostat + Phenformin (first compound 0.02 µM), 0.433; with Entinostat + Phenformin (first compound 0.06325 µM) it was 0.437. The relative viability with Entinostat + Phenformin (first compound 0.2 µM) amounted to 0.422; with Entinostat + Phenformin (first compound 0.6325 µM), 0.339; with Entinostat + Phenformin (first compound 2 µM) it was 0.312; in the assay with Entinostat + Navitoclax (first compound 0.02 µM), 0.679; in the assay with Entinostat + Navitoclax (first compound 0.06325 µM) it was 0.905; with Entinostat + Navitoclax (first compound 0.2 µM), 1.13. Besides, the figures for the relative viability with Entinostat + Navitoclax (first compound 0.6325 µM) and with Entinostat + Navitoclax (first compound 2 µM) were 0.414 and 0.314, respectively.
For SK-LU-1, the relative viability in assay [1] (first compound 0.02 µM) came out at 0.486; in assay [1] (first compound 0.06325 µM) it was 0.502; in assay [1] (first compound 0.2 µM), 0.5; in assay [1] (first compound 0.6325 µM), 0.42; in assay [1] (first compound 2 µM), 0.411; with Entinostat + Olaparib (first compound 0.02 µM), 0.469. Moreover, the relative viability with Entinostat + Olaparib (first compound 0.06325 µM) was 0.497; in the assay with Entinostat + Olaparib (first compound 0.2 µM) it was 0.394; in the assay with Entinostat + Olaparib (first compound 0.6325 µM), 0.313; with Entinostat + Olaparib (first compound 2 µM), 0.288; in the assay with Entinostat + Phenformin (first compound 0.02 µM) it was 0.579; with Entinostat + Phenformin (first compound 0.06325 µM), 0.693. The relative viability with Entinostat + Phenformin (first compound 0.2 µM) was 0.497; in the assay with Entinostat + Phenformin (first compound 0.6325 µM), 0.398; in the assay with Entinostat + Phenformin (first compound 2 µM), 0.362; with Entinostat + Navitoclax (first compound 0.02 µM), 0.633; in the assay with Entinostat + Navitoclax (first compound 0.06325 µM), 0.76; in the assay with Entinostat + Navitoclax (first compound 0.2 µM) it was 1.1. Also, the relative viability with Entinostat + Navitoclax (first compound 0.6325 µM) was found to be 0.37; with Entinostat + Navitoclax (first compound 2 µM) it was 0.368.
On to SK-MES-1, for which the relative viability in assay [1] (first compound 0.02 µM) came out at 0.474; in assay [1] (first compound 0.06325 µM), 0.518; in assay [1] (first compound 0.2 µM), 0.458; in assay [1] (first compound 0.6325 µM), 0.426; in assay [1] (first compound 2 µM), 0.395; with Entinostat + Olaparib (first compound 0.02 µM), 0.576. For the same cell line, the relative viability in the assay with Entinostat + Olaparib (first compound 0.06325 µM) was determined as 0.646; in the assay with Entinostat + Olaparib (first compound 0.2 µM), 0.801; in the assay with Entinostat + Olaparib (first compound 0.6325 µM), 0.596; with Entinostat + Olaparib (first compound 2 µM) it was 0.467; with Entinostat + Phenformin (first compound 0.02 µM), 0.614; in the assay with Entinostat + Phenformin (first compound 0.06325 µM) it was 0.699. Also, the relative viability worked out at 0.721 in the assay with Entinostat + Phenformin (first compound 0.2 µM); 0.657 with Entinostat + Phenformin (first compound 0.6325 µM); 0.504 in the assay with Entinostat + Phenformin (first compound 2 µM); 1.2 with Entinostat + Navitoclax (first compound 0.02 µM); 1.21 with Entinostat + Navitoclax (first compound 0.06325 µM); 1.24 with Entinostat + Navitoclax (first compound 0.2 µM). The relative viability with Entinostat + Navitoclax (first compound 0.6325 µM) was determined as 1.17; with Entinostat + Navitoclax (first compound 2 µM), 0.788.
For the cell line SW 1573, the relative viability in assay [1] (first compound 0.02 µM) was 0.744; in assay [1] (first compound 0.06325 µM), 0.573; in assay [1] (first compound 0.2 µM), 0.476; in assay [1] (first compound 0.6325 µM) it was 0.534; in assay [1] (first compound 2 µM), 0.476; with Entinostat + Olaparib (first compound 0.02 µM) it was 0.415. Besides, the relative viability with Entinostat + Olaparib (first compound 0.06325 µM) was determined as 0.563; in the assay with Entinostat + Olaparib (first compound 0.2 µM) it was 0.582; in the assay with Entinostat + Olaparib (first compound 0.6325 µM), 0.468; with Entinostat + Olaparib (first compound 2 µM) it was 0.261; with Entinostat + Phenformin (first compound 0.02 µM), 0.38; with Entinostat + Phenformin (first compound 0.06325 µM), 0.483. The relative viability with Entinostat + Phenformin (first compound 0.2 µM) came out at 0.41; with Entinostat + Phenformin (first compound 0.6325 µM) it was 0.45; with Entinostat + Phenformin (first compound 2 µM), 0.382; in the assay with Entinostat + Navitoclax (first compound 0.02 µM), 0.933; with Entinostat + Navitoclax (first compound 0.06325 µM), 1.35; with Entinostat + Navitoclax (first compound 0.2 µM), 1.07. Further, the values for the relative viability with Entinostat + Navitoclax (first compound 0.6325 µM) and in the assay with Entinostat + Navitoclax (first compound 2 µM) were 0.996 and 0.628, respectively.
